Counter-ions that a name gives are not always drawn.
Key:
[1] = tested on: LPS-induced plasma IL-6 production; assay: LPS-induced plasma cytokine production in mouse, IL-6; format: in vivo, Balb/c mice; conditions: oral 1 h before LPS 0.4 mg/kg i.p.
Protocol: Alternately, the compound is screened for its ability to inhibit the LPS-induced cytokine production in rat plasma according to the method reported in the literature (Ziegelbauer K, Gantner F, Lukacs N W, et al. Br J. Pharmacol. 2005,145(2):178-92). Briefly, Lewis rats (male, body weight 140 g-180 g) are used in the experiments. Animals (8/group) are given 1 to 100 mg/kg of the testing compound (suspension in 35% solutol & 60% PEG400 & 5% PG) or vehicle by oral gavage at 1 h prior to intraperitoneal administration of LPS 0.4 mg/kg. Ninety minutes after the intraperitoneal administration of LPS, blood is collected in heparin anticoagulated tubes to measure TNFα using R&D System ELISA Kit based on the general Kit protocols. The plasma sample is diluted 100 fold with the dilution buffer and 50 μL of diluted sample is used in each measurement. The plate is read on a SPECTRAMAX® M2e Plus Plate Reader and TNFα levels are analyzed based on the standard curve. The drug levels in plasma are measured with LC-MS-MS. […] Alternately, the compound is screened for its ability to inhibit the LPS-induced cytokine production in mouse plasma. Balb/c mice (female, body weight 18-20 g) are used in the experiments. […] The plate is read on a SPECTRMAX® M2e Plus Plate Reader and the data is analyzed using a standard curve.

[2] = tested on: HT-29 human colon cancer xenograft; assay: Anti-tumor effects in human colon cancer HT-29 xenograft with/without CPT-11; format: in vivo, Balb/c nu/nu mice
Protocol: IKKβ inhibitor has been reported to repress the HT-29 tumor growth when in combination with CPT-11 (Lagadec P, Griessinger E, Nawrot M P, et al. Br. J. Cancer (2008) 98, 335-344). The anti-tumor effect of the compound is then examined in a human colon cancer HT-29 xenograft in combination with CPT-11. The compound is tested for its anti-tumor effects in a human colon cancer HT-29 xenograft with/without the co-administration of CPT-11 essentially as described in a method reported in the literature (Lagadec P, Griessinger E, Nawrot M P, et al. Br. J. Cancer (2008) 98, 335-344).
The HT-29 human colorectal adenocarcinoma cell line is obtained from ATCC and cultured in McCoy's 5a medium containing 10% fetal calf serum. Male Balb/c nu/nu mice (6-7 weeks old) are injected subcutaneously in the right lateral flank with 0.1 mL of cell suspension containing 3.0×10^6 cells. Mice are divided into six groups, seven days after cell implantation. The test compound is orally administered twice a day at 60 and 20 mg/kg. CPT-11 at 20 mg/kg is peritoneally administered twice a week. In combination treatment, CPT-11 is given 1 h after the administration of the test compound. […] Two orthogonal diameters of the tumor are measured with digital vernier calipers three times a week. Tumor volume (TV) is measured and recorded during treatment period by the formula: TV=LengthxWidth^2/2. […]

| Compound | ED50 [1] | HT-29 tumor growth, combination with CPT-11 ([2]; 60 or 20 mg/kg p.o. + CPT-11 20 mg/kg i.p., P<0.05) | HT-29 tumor growth, single agent ([2]; 60 or 20 mg/kg, p.o., twice a day) |
| --- | --- | --- | --- |
| Cl.O=C(NC1CC1)c1cccc2[nH]c(-c3nc(N[C@@H]4CCC[C@H]4O)ncc3Cl)cc12 [Example 2, 2-{5-Chloro-2-[(1R,2R)-2-hydroxycyclopentylamino]pyrimidin-4-yl}-N-cyclopropyl-1H-indole-4-carboxamide hydrochloride] | 15.1 mg/kg | – | – |
| O=C(NC1CC1)c1cccc2[nH]c(-c3nc(N[C@@H]4CCC[C@@H]4O)ncc3Cl)cc12 [Example 1, 2-{5-Chloro-2-[(1R,2S)-2-hydroxycyclopentylamino]pyrimidin-4-yl}-N-cyclopropyl-1H-indole-4-carboxamide hydrochloride] | – | enhances the anti-tumor effect of CPT-11 | does not inhibit HT-29 tumor growth |
